Consider eight compounds from ChEMBL document CHEMBL1201862, “PubChem BioAssay data set” (2004).

Each structure is given as a SMILES string. Calls of active or inactive are those of the source.

One experiment has as its target Ephrin type-A receptor 4 (Mus musculus, UniProt Q03137). Kind of experiment: inhibitors of EphA4 binding to KYL peptide, primary screen, biochemical, colorimetric, mouse EphA4 (AID 689). Format: functional.
Another experiment deals with T1, Cytochrome P450 1A2 (Homo sapiens, UniProt P05177).
T1 sequence (P05177 whole entry): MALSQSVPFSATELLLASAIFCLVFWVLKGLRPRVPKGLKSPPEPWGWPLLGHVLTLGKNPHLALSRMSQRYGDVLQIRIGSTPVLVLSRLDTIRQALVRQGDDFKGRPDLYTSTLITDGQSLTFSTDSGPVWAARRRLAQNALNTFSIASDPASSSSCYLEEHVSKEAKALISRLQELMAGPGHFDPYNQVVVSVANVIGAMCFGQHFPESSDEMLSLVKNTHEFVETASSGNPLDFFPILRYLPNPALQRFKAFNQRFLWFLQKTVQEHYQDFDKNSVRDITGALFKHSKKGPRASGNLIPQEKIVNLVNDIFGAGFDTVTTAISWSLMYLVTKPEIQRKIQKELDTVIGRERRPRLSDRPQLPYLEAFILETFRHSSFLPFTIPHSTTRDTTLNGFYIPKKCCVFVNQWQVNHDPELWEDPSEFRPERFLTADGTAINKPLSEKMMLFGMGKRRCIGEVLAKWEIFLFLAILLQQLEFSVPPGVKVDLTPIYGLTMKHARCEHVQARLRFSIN

The next experiment has as its target Estrogen receptor beta (Homo sapiens, UniProt Q92731).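 Further: recombinant ER-beta bound to coactivator SRC1 peptide in presence of estradiol agonist; inhibitors block coactivator peptide binding and lower the FRET signal.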
For another experiment, the target named is T2, Estrogen receptor (Homo sapiens, UniProt P03372).
T2 sequence (P03372 whole entry): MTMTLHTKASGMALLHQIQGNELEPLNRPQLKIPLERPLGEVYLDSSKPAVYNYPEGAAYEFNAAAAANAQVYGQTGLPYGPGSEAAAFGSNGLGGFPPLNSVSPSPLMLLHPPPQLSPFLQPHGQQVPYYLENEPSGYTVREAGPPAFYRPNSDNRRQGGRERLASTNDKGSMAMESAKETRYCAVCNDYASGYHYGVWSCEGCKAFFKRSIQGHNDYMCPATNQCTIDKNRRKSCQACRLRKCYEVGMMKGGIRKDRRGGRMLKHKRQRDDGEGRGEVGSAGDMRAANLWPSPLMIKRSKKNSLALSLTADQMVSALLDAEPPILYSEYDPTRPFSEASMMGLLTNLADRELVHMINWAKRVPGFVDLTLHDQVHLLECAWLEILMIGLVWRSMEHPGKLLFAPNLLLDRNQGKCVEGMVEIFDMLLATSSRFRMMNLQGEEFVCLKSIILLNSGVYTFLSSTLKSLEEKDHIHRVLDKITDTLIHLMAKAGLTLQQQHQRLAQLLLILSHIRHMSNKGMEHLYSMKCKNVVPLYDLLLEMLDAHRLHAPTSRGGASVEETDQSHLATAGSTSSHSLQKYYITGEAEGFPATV

Experiment [1] deals with Heat shock protein HSP 90-alpha (Homo sapiens, UniProt P07900). As to the kind of experiment: Luminescence-based dose response biochemical high throughput screening assay for inhibitors of the Heat Shock Protein 90 (HSP90). [Related pubchem assays: 1831 (Summary AID.), 1846 (Confirmation screen.), 1789 (Primary screen.)].
For experiment [2], the target named is T3, Heat shock factor protein 1 (Mus musculus, UniProt P38532).
T3 sequence (P38532 whole entry): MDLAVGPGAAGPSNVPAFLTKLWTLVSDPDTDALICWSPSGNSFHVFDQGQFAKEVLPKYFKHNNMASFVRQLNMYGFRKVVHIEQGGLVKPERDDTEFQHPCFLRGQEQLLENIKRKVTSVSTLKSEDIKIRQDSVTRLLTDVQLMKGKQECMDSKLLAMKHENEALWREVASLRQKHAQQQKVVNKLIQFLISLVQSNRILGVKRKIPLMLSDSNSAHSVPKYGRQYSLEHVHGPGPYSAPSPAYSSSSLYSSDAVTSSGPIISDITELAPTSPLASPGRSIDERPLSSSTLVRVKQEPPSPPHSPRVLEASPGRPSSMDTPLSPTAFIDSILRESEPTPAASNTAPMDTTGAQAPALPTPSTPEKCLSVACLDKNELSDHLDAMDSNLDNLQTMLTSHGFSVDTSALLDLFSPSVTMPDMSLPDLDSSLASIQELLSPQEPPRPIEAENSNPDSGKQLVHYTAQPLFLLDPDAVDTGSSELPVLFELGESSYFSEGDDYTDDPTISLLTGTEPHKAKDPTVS
Kind of experiment: HSF1 potentiators in luciferase reporter cells, confirmation, cell-based, NIH3T3, luminescence, dose retest (AID 435004).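 Further: stress induced by proteasome inhibitor MG132 added 30 min after compound; luciferase reporter driven by HSF1 response element in NIH3T3 cells; actives raise luminescence as potentiators of the MG132 stress response.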 The experiment is classed as functional. (In general: In a reporter assay the amount or activity of a reporter protein is the signal.)

The target in experiment [3] is Sphingosine 1-phosphate receptor 2 (Homo sapiens, UniProt O95136). As to the kind of experiment: Dose Response Cell Based Assay for Agonists of the S1P2 Receptor. [Related pubchem assays: 729, 736, 843 ]. Format: functional.
Chain of Sphingosine 1-phosphate receptor 2 (O95136 whole entry): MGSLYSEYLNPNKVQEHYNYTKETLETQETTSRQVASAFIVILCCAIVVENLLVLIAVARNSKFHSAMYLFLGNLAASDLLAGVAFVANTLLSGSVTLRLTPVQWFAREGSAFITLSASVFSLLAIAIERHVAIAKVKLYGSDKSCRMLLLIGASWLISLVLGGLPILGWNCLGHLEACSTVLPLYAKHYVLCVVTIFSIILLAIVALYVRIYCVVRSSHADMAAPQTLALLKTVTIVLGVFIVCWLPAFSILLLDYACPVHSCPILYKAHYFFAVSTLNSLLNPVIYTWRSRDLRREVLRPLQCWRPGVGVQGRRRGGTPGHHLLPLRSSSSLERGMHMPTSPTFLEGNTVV
Experiment [4] in a line: THP-1 cell cytotoxicity, dose response, cytotoxicity control for Vif-APOBEC3G degradation inhibitor project, THP-1 cells (AID 1117359). The experiment is classed as functional. The conditions noted are these: Human immunodeficiency virus 1, THP-1.
A short description of experiment [5]: Luminescent dose response cell-based high throughput screening assay for inhibitors of the Janus kinase 2 mutant JAK2V617F. [Related pubchem assays: 1446 (Primary screen.), 1521 (Confirmation assay.), 1486 (Counter screen.)]. The experiment is classed as functional. On the technique in general: Counterscreens check selectivity or assay interference.
For experiment [6], the target named is T4, Rac GTPase-activating protein 1 (Homo sapiens, UniProt Q9H0H5).
T4 sequence (Q9H0H5 whole entry): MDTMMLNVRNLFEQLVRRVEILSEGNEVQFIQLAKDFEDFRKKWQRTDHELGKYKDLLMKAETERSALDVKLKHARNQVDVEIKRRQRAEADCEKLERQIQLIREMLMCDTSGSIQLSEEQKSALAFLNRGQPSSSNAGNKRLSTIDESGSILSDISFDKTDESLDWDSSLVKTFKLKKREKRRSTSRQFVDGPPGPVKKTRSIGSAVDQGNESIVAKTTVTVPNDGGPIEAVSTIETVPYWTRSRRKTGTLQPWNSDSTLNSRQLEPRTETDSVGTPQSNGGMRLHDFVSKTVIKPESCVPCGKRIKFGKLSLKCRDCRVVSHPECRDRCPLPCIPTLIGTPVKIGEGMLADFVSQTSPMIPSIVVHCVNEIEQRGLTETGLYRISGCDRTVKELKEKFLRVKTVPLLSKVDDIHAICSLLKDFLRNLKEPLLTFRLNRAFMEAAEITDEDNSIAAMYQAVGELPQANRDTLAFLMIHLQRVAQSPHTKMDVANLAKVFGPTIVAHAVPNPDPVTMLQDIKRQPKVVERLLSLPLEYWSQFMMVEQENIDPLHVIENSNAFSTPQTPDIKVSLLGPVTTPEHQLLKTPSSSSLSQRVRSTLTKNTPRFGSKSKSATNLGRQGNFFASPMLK
Kind of experiment: MgcRacGAP GTPase-activating activity inhibitors, confirmation, biochemical, ADP Hunter fluorescence, primary and confirmatory (AID 624330). The experiment is classed as functional.

Experiment [7] in a line: HEp-2 cell cytotoxicity, dose response, cytotoxicity control for RSV inhibitor project, HTS (AID 2410). Format: functional. The settings on record: human respiratory syncytial virus.
The target in experiment [8] is T5, Corticotropin-releasing factor receptor 2/Corticotropin-releasing factor-binding protein (Homo sapiens, UniProt P24387+Q13324).
T5 sequence (Q13324 whole entry): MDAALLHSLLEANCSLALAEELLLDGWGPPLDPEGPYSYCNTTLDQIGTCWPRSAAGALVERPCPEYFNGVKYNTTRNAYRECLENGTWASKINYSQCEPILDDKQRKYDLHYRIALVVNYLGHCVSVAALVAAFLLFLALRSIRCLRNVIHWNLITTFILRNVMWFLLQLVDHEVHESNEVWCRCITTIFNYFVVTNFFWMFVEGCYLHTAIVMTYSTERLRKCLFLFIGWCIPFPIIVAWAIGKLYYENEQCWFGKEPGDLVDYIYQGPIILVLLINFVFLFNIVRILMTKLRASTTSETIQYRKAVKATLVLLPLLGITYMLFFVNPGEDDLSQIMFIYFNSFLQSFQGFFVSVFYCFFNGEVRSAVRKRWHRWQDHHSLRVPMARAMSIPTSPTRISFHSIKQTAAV
T5 sequence (P24387 whole entry): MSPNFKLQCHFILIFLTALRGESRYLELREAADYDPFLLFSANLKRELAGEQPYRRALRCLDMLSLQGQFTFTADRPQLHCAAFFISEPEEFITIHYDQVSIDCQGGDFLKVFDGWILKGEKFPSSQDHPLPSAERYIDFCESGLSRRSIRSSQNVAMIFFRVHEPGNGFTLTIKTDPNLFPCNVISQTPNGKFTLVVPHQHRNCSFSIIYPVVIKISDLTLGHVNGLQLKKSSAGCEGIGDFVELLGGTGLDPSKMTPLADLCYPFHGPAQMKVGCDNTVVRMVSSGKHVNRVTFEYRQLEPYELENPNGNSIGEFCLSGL
As to the kind of experiment: activators of CRF receptor 2 with binding protein – uHTS hits, confirmation (AID 602473). The settings on record: read-out: EC50_Mean. The experiment is classed as functional.

Experiment [9] addresses T5, Corticotropin-releasing factor receptor 2/Corticotropin-releasing factor-binding protein. As to the kind of experiment: Dose Response confirmation of uHTS hits for small molecule antagonists of the CRF-binding protein and CRF-R2 receptor complex. The settings on record: read-out: IC50_Mean. The experiment is classed as functional.
The nature of experiment [10]: M. tuberculosis growth inhibition, HTS (AID 449762). Format: functional.
Experiment [11] can be described thus: microbe, parasite or virus in culture. Format: functional. The conditions noted are these: Mycobacterium tuberculosis.
A short description of experiment [12]: Concentration-dependent survival of SW480 colon cancer line, luminescence detection with CellTiter-Glo, half-maximal inhibitory concentration (AID 1117338). The experiment is classed as functional.
Experiment [13] in a line: HeLa 2N DNA content increase, dose response, cell-based, IC50 (AID 1117349). The experiment is classed as functional.
Experiment [14] can be described thus: cytotoxicity toward HCT116 cells – cell-based, CellTiter-Glo luminescence, IC50, dose response (AID 1117332). The experiment is classed as functional. The settings on record: HCT-116. For orientation: Cellular ATP, detected with luciferase, serves as a proxy for viable cell number.
Experiment [15] is described as follows: cytotoxicity toward HT-29 cells – cell-based, CellTiter-Glo luminescence, IC50, dose response (AID 1117330). Format: functional.
Experiment [16] can be described thus: HeLa 4N DNA content increase, dose response, cell-based, IC50 (AID 1117351). Format: functional.
Experiment [17] is described as follows: SNU-C1 cell viability reduction, dose response, CellTiter-Glo luminescence (AID 1117323). Format: functional, cell-based.
A short description of experiment [18]: CellTiter-Glo luminescent dose response of DLD-1 viability loss (AID 1117352). Format: functional.
A short description of experiment [19]: cytotoxicity toward Colo320 cells – cell-based, CellTiter-Glo luminescence, IC50, dose response (AID 1117334). The conditions noted are these: COLO 320. Format: functional.
Experiment [20] is described as follows: RKO cell viability reduction, dose response, CellTiter-Glo luminescence (AID 1117322). The experiment is classed as functional.
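Wherever AC50 is given: PubChem cytochrome P450 panel assay, CYP1A2 panel member.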

Chain of Ephrin type-A receptor 4 (Q03137 whole entry): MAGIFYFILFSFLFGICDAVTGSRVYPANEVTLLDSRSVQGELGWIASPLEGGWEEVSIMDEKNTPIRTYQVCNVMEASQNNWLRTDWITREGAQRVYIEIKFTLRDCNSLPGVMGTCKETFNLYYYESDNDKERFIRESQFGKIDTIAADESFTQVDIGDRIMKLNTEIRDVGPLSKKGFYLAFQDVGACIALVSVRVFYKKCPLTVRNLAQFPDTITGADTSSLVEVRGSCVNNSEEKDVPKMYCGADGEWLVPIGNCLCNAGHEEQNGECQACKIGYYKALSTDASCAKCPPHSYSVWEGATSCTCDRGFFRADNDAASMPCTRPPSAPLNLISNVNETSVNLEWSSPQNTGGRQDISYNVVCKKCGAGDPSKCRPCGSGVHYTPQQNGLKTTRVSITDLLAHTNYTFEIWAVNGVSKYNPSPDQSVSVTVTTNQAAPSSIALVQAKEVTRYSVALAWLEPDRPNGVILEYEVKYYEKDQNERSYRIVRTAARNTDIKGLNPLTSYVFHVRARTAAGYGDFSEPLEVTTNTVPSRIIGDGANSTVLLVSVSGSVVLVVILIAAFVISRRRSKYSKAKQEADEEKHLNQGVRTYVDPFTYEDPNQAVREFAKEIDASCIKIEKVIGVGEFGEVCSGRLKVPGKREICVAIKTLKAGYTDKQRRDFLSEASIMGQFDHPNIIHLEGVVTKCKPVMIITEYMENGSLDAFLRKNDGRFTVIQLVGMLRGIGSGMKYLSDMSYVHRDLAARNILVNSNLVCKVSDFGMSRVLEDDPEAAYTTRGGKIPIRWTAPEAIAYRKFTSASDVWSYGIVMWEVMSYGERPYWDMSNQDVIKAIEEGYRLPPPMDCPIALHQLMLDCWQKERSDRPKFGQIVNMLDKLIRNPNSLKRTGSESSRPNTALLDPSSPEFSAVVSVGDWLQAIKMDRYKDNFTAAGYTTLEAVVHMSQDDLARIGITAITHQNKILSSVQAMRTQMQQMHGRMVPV
Chain of Estrogen receptor beta (Q92731 whole entry): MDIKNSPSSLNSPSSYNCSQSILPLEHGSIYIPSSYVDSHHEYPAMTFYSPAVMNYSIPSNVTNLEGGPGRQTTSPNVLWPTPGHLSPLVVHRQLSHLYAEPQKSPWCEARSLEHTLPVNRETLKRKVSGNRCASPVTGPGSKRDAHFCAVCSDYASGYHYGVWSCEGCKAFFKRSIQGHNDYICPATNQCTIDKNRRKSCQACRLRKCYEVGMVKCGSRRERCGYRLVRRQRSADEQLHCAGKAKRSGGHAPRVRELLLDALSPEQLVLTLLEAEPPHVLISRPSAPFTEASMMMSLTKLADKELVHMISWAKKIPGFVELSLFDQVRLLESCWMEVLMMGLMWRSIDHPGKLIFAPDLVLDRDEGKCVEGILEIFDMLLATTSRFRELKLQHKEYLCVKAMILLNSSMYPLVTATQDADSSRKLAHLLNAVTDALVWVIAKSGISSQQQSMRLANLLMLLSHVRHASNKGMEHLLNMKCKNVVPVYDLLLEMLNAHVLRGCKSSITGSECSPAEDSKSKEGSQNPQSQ

In general, AC50 refers to the concentration at which the activity in the assay is half-maximal. Turning to `Brc1ccc(-c2nnc(-c3cccc(Br)c3)o2)cc1`, at Ephrin type-A receptor 4, the IC50 was > 100 µM (not active). Besides, the concentration at half-maximal activity (AC50) on Cytochrome P450 1A2 is 0.316 µM (inconclusive).

With `Cn1nc([N+](=O)[O-])c2c(-c3nc4ccccc4s3)c(N)n(C3CCCCC3)c2c1=O`, the IC50 at Estrogen receptor beta is 6.01 µM (active); on Estrogen receptor, 4.98 µM (active).

Turning to `CCC(=O)Nc1ccccc1C(=O)OCC(=O)c1ccccc1`, the IC50 in experiment [1] is 2.13 µM (active). Besides, the EC50 in [2] is 46.9 µM (active).

For the compound `Cc1cccc2cc(C(c3nnnn3CC3CCCO3)N3CCc4ccccc4C3)c(=O)[nH]c12` (stereo not given), the EC50 in experiment [3] is reported as > 50 µM (not active).

Turning to `COC(=O)NCCOC(=O)N(O)c1ccc(Br)cc1`, the IC50 in experiment [1] is recorded as 16.7 µM (not active).

Take `O=C(/C=C/c1ccc(O)c(O)c1)c1ccc(S(=O)(=O)N2CCCCCC2)cc1`: the CC50 in [4] is 26.3 µM (active). Moreover, the IC50 in experiment [5] is 0.835 µM (active); in experiment [6] it was 82 µM (active).

Take `Cc1nn(-c2ccccc2)c(N2CCCC2)c1/C=N/Nc1ccc(S(N)(=O)=O)cc1[N+](=O)[O-]`: the results for the CC50 in experiment [7] and in experiment [11] were 33.2 µM (active) and > 40 µM (active), respectively. Also, the EC50 in experiment [8] is > 53 µM (inactive). The IC50 is > 47.1 µM (inactive) in experiment [9] and > 100 µM (active) in experiment [10].

In the case of `O=C1C(O)=C([C@H]2CC[C@H](c3ccc(Cl)cc3)CC2)C(=O)c2ccccc21` [ATOVAQUONE], the IC50 was 0.0946 µM (active) in experiment [12]; > 10 µM (inactive) in [13]; 0.138 µM (active) in [14]; 0.411 µM (active) in [15]; > 10 µM (inactive) in experiment [16]; 0.368 µM (active) in experiment [17]. For the same compound, the IC50 was 0.0838 µM (active) in experiment [18], 0.176 µM (active) in [19] and 0.114 µM (active) in experiment [20].
